From patent publication US20040192720A1, “Novel heteroaryl alkylamide derivatives useful as bradykinin receptor modulators” (priority 2003, published 2004)

Molecular target: T1, human B2 bradykinin receptors (CHO-hB2 cell membranes) (Homo sapiens, UniProt P30411)
T1 construct: purchased Receptor Biology, Inc. (Baltimore, Md.); host or cells: CHO-hB2 cells (membranes)
T1 sequence (P30411 1-391): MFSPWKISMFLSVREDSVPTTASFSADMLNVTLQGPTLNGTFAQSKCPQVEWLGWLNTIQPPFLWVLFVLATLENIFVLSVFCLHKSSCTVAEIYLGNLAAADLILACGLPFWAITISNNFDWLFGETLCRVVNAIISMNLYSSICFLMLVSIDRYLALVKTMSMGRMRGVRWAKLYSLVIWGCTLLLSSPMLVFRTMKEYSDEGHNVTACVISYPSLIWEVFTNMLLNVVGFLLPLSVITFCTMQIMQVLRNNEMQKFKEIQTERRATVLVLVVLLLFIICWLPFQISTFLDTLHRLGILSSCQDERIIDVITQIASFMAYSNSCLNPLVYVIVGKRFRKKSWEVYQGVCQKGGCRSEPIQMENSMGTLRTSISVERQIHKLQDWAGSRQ
Assay: [35S]GTPγS Binding Assay in CHO-hB2 Cell Membranes
Type: biochemical
Conditions: bradykinin-stimulated [35S]GTPγS binding; for Functional Activity (% Basal): number in parentheses, concentration not given
Protocol: [^35S]GTPγS Binding Assay in CHO-hB2Cell Membranes
CHO-hB2 cell membranes were purchased from Receptor Biology, Inc. (Baltimore, Md.). 10 mg/mL of membrane protein was suspended in 10 mM TRIS-HC pH 7.2, 2 mM EDTA, 10% sucrose.
Membranes were added into 15 mL ice cold binding assay buffer. The assay buffer contained 50 mM HEPES, pH 7.6, 5 mM MgCl2, 100 mM NaCl, 1 mM DTT and 1 mM EDTA. The membrane suspension was homogenized twice with a Polytron and centrifuged at 3000 rpm for 10 min. The supernatant was then centrifuged at 18,000 rpm for 20 min. The pellet was saved in a tube and resuspended.
The pellet membranes (40 μg/mL) were preincubated with SPA (scintillation proximity assay) beads (20 mg/mL) at 25 C. ° for 45 min in the assay buffer. The SPA beads (5 mg/mL) coupled with membranes (10 μg/mL) were then incubated with 0.5 nM [^35S]GTPγS in the same HEPES buffer containing 50 μM GDP in total volume of 200 μL. Bradykinin was used to stimulate [^35S]GTPγS binding. Varying concentrations of drugs were incubated with bradykinin to inhibit bradykinin-stimulated [^35S]GTPγS binding. The basal binding was tested in the absence of bradykinin and no specific binding was tested in the present 10 μM unlabeled GTPγS. The radioactivity was quantified on a Packard Top Count, and calculated.
% of Basal=(stimulated binding−non specific binding)/(basal binding−non specific binding)×100.

SMILES | Functional Activity (word result) | Functional Activity (% Basal)
Cc1ccc2cccc(OCc3c(Cl)ccc(N(C)C(=O)Cc4ccc(C(=O)c5ccc(C(=O)N(C)C)cc5)n4C)c3Cl)c2n1 [Compound 62, 4-[5-({[2,4-Dichloro-3-(2-methyl-quinolin-8-yloxymethyl)-phenyl]-methyl-carbamoyl}-methyl)-1-methyl-1H-pyrrole-2-carbonyl]-N,N-dimethyl-benzamide] | Antagonist | 
CCN(C(=O)Cc1ccc(C(=O)c2ccc(Cl)nc2)n1C)c1ccc(Cl)c(COc2cccc3ccc(C)nc23)c1Cl [Compound 17] | No effect | 1
Cc1ccc2cccc(OCc3c(C)ccc(N(C)C(=O)CCc4ccc(C(=O)c5cccnc5)n4C)c3C)c2n1 [Compound 84] | Antagonist | 
CCCCn1c(CC(=O)N(C)c2ccc(Cl)c(COc3cccc4ccc(C)nc34)c2Cl)ccc1C(=O)c1ccc(C#N)cc1 [Compound 10] | No effect | 1
Cc1ccc2cccc(OCc3c(Cl)ccc(N(C)C(=O)Cc4ccc(C(=O)c5ccc(C#N)cc5)n4CC4CC4)c3Cl)c2n1 [Compound 11, 2-[5-(4-Cyano-benzoyl)-1-cyclopropylmethyl-1H-pyrrol-2-yl]-N-[2,4-dichloro-3-(2-methyl-quinolin-8-yloxymethyl)-phenyl]-N-methyl-acetamide] | No effect | 1
CC(=O)Nc1cccc(C(=O)c2ccc(CC(=O)N(C)c3ccc(Cl)c(COc4cccc5ccc(C)nc45)c3Cl)n2C)c1 [Compound 72] | Antagonist | 
CCCn1c(CC(=O)N(C)c2ccc(Cl)c(COc3cccc4ccc(C)nc34)c2Cl)ccc1C(=O)c1ccc(C#N)cc1 [Compound 9] | No effect | 1
COc1ccc(C(=O)c2ccc(CC(=O)N(C)c3ccc(Cl)c(COc4cccc5ccc(C)nc45)c3Cl)n2C)cc1 [Compound 68] | Weak antagonist | 4
Cc1ccc2cccc(OCc3c(Cl)ccc(N(C)C(=O)Cc4ccc(C(=O)c5ccc(Cl)nc5)n4C)c3Cl)c2n1 [Compound 67, 2-[5-(6-Chloro-pyridine-3-carbonyl)-1-methyl-1H-pyrrol-2-yl]-N-[2,4-dichloro-3-(2-methyl-quinolin-8-yloxymethyl)-phenyl]-N-methyl-acetamide] | Antagonist | 
CC(=O)Nc1ccc(C=CC(=O)NC[C@H]2CCCN2c2ccc(C)c(COc3cccc4ccc(C)nc34)c2C)cn1 [Compound 112, 3-(6-Acetylamino-pyridin-3-yl)-N-{1-[2,4-dimethyl-3-(2-methyl-quinolin-8-yloxymethyl)-phenyl]-pyrrolidin-2-(R)-ylmethyl}-acrylamide.] | Antagonist | 59
Cc1ccc2cccc(OCc3c(Cl)ccc(N(C)C(=O)Cc4ccc(C(=O)CN5CCC(Cc6ccccc6)CC5)n4C)c3Cl)c2n1 [Compound 59] | No effect | 1
Cc1ccc2cccc(OCc3c(Cl)ccc(N(C)C(=O)Cc4ccc(C(=O)c5ccc([N+](=O)[O-])cc5)n4C)c3Cl)c2n1 [Compound 63] | Antagonist | 
Cc1ccc2cccc(OCc3c(Cl)ccc(N(C)C(=O)Cc4ccc(C(=O)c5ccc(C#N)cc5)n4CCC(C)C)c3Cl)c2n1 [Compound 13] | No effect | 1
Cc1ccc2cccc(OCc3c(C)ccc(N(C)C(=O)CCc4ccc(C(=O)c5ccc(Cl)nc5)n4C)c3C)c2n1 [Compound 88] | Antagonist | 
Cc1ccc2cccc(OCc3c(Cl)ccc(N(C)C(=O)Cc4ccc(C(=O)c5ccc(C#N)nc5)n4C)c3Cl)c2n1 [Compound 71] | Antagonist | 
Cc1ccc2cccc(OCc3c(Cl)ccc(N(C)C(=O)Cc4ccc(C(=O)c5cccs5)n4C)c3Cl)c2n1 [Compound 61] | Weak antagonist | 
CCn1c(CC(=O)N(C)c2ccc(Cl)c(COc3cccc4ccc(C)nc34)c2Cl)ccc1C(=O)c1ccc(C#N)cc1 [Compound 8] | Antagonist | 40

SMILES | Functional Activity (word result) | Functional Activity (% Basal)
Cc1ccc2cccc(OCc3c(Cl)ccc(N(C)C(=O)Cc4cc(C(=O)c5ccc(C#N)cc5)n(C)c4)c3Cl)c2n1 [Compound 4, 2-[5-(4-Cyano-benzoyl)-1-methyl-1H-pyrrol-3-yl]-N-[2,4-dichloro-3-(2-methyl-quinolin-8-yloxymethyl)-phenyl]-N-methyl-acetamide] | Antagonist | 
Cc1ccc2cccc(OCc3c(Cl)cc(Cl)c(N(C)C(=O)Cc4ccc(C(=O)c5ccc(Cl)nc5)n4C)c3Cl)c2n1 [Compound 117, 2-[5-(6-Chloro-pyridine-3-carbonyl)-1-methyl-1H-pyrrol-2-yl]-N-methyl-N-[2,4,6-trichloro-3-(2-methyl-quinolin-8-yloxymethyl)-phenyl]-acetamide] | Antagonist | 
Cc1ccc2cccc(OCc3c(Cl)ccc(N(C)C(=O)Cc4ccc(C(=O)c5ccc(C#N)cc5)n4C)c3Cl)c2n1 [Compound 76] | Antagonist | 
CCN(C(=O)Cc1ccc(C(=O)c2ccc(C#N)cc2)n1C)c1ccc(C)c(COc2cccc3ccc(C)nc23)c1C [Compound 16] | No effect | 1
Cc1ccc2cccc(OCc3c(Cl)ccc(N(C)C(=O)Cc4ccc(C(=O)c5ccc([N+](=O)[O-])c(C)c5)n4C)c3Cl)c2n1 [Compound 65, N-[2,4-Dichloro-3-(2-methyl-quinolin-8-yloxymethyl)-phenyl]-N-methyl-2-[1-methyl-5-(3-methyl-4-nitro-benzoyl)-1H-pyrrol-2-yl]-acetamide] | Antagonist | 
Cc1ccc2cccc(OCc3c(Cl)ccc(N(C)C(=O)Cc4ccc(C(=O)c5ccc([S+](C)[O-])cc5)n4C)c3Cl)c2n1 (centres unmarked) [Compound 73, N-[2,4-Dichloro-3-(2-methyl-quinolin-8-yloxymethyl)-phenyl]-2-[5-(4-methanesulfinyl-benzoyl)-1-methyl-1H-pyrrol-2-yl]-N-methyl-acetamide] | Antagonist | 
CSc1ccc(C(=O)c2ccc(CC(=O)N(C)c3ccc(Cl)c(COc4cccc5ccc(C)nc45)c3Cl)n2C)cc1 [Compound 69] | Antagonist | 
Cc1ccc2cccc(OCc3c(C)ccc(N(C)C(=O)CCc4ccc(C(=O)c5ccncc5)n4C)c3C)c2n1 [Compound 82] | Antagonist | 50
Cc1ccc2cccc(OCc3c(Cl)ccc(N(C)C(=O)Cc4ccc(C(=O)c5ccccc5[N+](=O)[O-])n4C)c3Cl)c2n1 [Compound 66] | Antagonist | 
Cc1ccc2cccc(OCc3c(C)ccc(N(C)C(=O)CCc4ccc(C(=O)c5cccs5)n4C)c3C)c2n1 [Compound 80] | Weak antagonist | 
CCN(C(=O)Cc1ccc(C(=O)c2ccc(C#N)cc2)n1C)c1ccc(Cl)c(COc2cccc3ccc(C)nc23)c1Cl [Compound 18] | No effect | 1
COc1ccc(C(=O)c2ccc(CC(=O)N(C)c3ccc(Cl)c(COc4cccc5ccc(C)nc45)c3Cl)[nH]2)cc1 [Compound 5] | Antagonist | 
Cc1ccc2cccc(OCc3c(Cl)ccc(N(C)C(=O)Cc4ccc(C(=O)c5ccc(C#N)cc5)n4CC(C)C)c3Cl)c2n1 [Compound 12] | No effect | 1
COC(=O)c1ccc(C(=O)c2ccc(CC(=O)N(C)c3ccc(Cl)c(COc4cccc5ccc(C)nc45)c3Cl)n2C)cc1 [Compound 64] | Antagonist | 
Cc1ccc2cccc(OCc3c(Cl)ccc(N(C)C(=O)Cc4ccc(C(=O)c5ccc(S(C)(=O)=O)cc5)n4C)c3Cl)c2n1 [Compound 75, N-[2,4-Dichloro-3-(2-methyl-quinolin-8-yloxymethyl)-phenyl]-2-[5-(4-methanesulfonyl-benzoyl)-1-methyl-1H-pyrrol-2-yl]-N-methyl-acetamide] | Antagonist | 
Cc1ccc2cccc(OCc3c(C)ccc(N(C)C(=O)CCc4ccc(C(=O)c5ccc(C#N)cc5)n4C)c3C)c2n1 [Compound 90] | Antagonist | 50
